# Assay results taken from paper PMC4522657, “Identification of a DYRK1A Inhibitor that Induces Degradation of the Target Kinase using Co-chaperone CDC37 fused with Luciferase nanoKAZ” (Scientific Reports, 2015).
# Assays:
# Assay in all cases: Kinase panel, CaNDY 1 µM
# Type in all cases: biochemical
# Conditions in all cases: CaNDY 1 µM relative to DMSO
# [1] = molecular target: T1, MAP2K4_Cascade (Homo sapiens, UniProt P45985)
# T1 construct: purchased Carna Biosciences
# Method in brief: (§1)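 Here the enzymes were purified GST-fusion, full-length human kinases from baculovirus expression. After a one-hour room-temperature reaction in buffer with 1% DMSO, substrate phosphorylation was quantified by electrophoretic mobility shift and expressed as percent inhibition.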
# [2] = molecular target: T2, PDGFRα(V561D) (Homo sapiens, UniProt P16234, V561D)
# T2 construct: purchased Carna Biosciences
# T2 sequence (P16234 24-1089 V561D): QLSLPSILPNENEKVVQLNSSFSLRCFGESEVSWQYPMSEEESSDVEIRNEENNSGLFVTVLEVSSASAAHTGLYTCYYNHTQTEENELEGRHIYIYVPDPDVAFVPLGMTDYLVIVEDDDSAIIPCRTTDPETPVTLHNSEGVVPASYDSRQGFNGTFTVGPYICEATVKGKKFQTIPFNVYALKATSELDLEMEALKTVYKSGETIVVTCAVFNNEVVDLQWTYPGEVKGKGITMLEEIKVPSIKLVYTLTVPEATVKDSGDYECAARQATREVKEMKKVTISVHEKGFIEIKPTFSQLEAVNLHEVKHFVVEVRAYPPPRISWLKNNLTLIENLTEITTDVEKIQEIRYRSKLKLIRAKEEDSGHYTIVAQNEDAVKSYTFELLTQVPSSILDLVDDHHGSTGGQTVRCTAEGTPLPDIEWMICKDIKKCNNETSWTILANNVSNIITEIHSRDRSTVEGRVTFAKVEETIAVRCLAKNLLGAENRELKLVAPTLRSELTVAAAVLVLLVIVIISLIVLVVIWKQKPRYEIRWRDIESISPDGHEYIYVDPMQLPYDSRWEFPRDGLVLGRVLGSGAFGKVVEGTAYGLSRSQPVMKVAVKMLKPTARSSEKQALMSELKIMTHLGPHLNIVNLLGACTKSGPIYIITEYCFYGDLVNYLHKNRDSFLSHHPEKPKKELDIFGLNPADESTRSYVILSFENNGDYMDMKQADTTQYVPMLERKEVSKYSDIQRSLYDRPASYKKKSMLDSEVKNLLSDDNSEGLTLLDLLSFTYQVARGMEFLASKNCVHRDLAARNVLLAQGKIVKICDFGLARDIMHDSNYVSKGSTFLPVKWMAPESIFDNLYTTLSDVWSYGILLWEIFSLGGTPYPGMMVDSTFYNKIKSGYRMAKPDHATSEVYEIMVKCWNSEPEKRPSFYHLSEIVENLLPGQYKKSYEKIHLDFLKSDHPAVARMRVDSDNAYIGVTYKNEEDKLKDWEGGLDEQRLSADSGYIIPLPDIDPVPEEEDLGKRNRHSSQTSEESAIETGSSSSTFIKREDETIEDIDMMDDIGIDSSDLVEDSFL
# Method in brief: as §1
# [3] = molecular target: T3, ABL(E255K) (Homo sapiens, UniProt P00519, E255K)
# T3 construct: purchased Carna Biosciences
# T3 sequence (P00519 whole entry E255K): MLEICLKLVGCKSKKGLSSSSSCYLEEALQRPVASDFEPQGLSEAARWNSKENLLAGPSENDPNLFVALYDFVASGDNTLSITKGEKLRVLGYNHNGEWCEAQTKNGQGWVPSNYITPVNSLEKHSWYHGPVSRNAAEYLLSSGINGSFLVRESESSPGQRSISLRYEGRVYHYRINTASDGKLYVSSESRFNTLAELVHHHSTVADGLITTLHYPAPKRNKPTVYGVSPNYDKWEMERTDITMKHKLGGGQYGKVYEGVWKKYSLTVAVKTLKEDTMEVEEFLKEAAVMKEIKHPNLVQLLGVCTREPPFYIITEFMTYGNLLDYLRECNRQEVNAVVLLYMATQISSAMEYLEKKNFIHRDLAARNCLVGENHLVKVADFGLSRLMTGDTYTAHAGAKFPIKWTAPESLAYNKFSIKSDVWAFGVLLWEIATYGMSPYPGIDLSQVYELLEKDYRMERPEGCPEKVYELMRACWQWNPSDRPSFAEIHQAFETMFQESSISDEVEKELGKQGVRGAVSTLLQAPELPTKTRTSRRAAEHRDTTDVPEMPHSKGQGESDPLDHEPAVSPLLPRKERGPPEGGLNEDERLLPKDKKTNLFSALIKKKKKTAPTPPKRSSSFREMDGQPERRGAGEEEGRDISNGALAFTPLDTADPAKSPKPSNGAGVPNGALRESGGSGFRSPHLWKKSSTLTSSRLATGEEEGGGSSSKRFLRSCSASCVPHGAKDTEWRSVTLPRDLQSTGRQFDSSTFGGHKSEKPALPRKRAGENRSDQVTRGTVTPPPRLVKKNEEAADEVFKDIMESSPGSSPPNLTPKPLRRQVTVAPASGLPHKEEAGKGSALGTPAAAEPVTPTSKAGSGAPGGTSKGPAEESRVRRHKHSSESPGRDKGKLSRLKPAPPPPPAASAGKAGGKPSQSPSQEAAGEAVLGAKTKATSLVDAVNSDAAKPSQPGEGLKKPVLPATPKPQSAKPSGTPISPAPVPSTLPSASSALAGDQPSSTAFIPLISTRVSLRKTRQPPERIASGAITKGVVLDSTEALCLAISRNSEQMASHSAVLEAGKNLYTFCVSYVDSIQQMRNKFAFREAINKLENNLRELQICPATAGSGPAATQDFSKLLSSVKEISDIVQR
# Method in brief: as §1
# [4] = molecular target: T4, PKCθ (Homo sapiens, UniProt Q04759)
# T4 construct: purchased Carna Biosciences
# T4 sequence (Q04759 whole entry): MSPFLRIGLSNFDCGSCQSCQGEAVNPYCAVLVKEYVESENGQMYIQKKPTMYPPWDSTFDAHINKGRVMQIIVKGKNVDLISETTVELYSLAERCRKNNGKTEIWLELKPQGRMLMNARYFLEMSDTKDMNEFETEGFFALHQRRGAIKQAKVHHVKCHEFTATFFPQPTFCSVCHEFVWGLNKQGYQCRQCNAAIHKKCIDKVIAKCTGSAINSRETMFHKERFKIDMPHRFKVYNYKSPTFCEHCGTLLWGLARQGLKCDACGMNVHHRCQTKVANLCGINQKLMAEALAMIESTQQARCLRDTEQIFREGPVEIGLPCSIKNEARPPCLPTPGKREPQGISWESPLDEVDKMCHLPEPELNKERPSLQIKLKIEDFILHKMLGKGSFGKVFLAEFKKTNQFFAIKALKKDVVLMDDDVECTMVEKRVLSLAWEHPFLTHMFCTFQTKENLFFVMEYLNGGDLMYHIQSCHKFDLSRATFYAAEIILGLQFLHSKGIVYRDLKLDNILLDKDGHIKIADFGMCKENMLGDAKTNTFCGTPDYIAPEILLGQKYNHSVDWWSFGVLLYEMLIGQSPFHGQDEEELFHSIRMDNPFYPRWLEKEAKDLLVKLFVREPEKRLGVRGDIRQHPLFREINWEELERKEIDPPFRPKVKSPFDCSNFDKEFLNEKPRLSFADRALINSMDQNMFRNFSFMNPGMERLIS
# Method in brief: as §1
# [5] = molecular target: T5, MLK3_Cascade (Homo sapiens, UniProt Q16584)
# T5 construct: purchased Carna Biosciences
# Method in brief: as §1
# [6] = molecular target: T6, DCAMKL2 (Homo sapiens, UniProt Q8N568)
# T6 construct: purchased Carna Biosciences
# Method in brief: as §1
# [7] = molecular target: T7, PGK (Homo sapiens, UniProt Q13976)
# T7 construct: purchased Carna Biosciences
# Method in brief: as §1
# [8] = molecular target: T8, EML4-ALK (Homo sapiens, UniProt Q9UM73)
# T8 construct: purchased Carna Biosciences
# Method in brief: as §1
# [9] = molecular target: T9, RET(G691S) (Homo sapiens, UniProt P07949, G691S)
# T9 construct: purchased Carna Biosciences
# Method in brief: as §1
# [10] = molecular target: T10, EPHA7 (Homo sapiens, UniProt Q15375)
# T10 construct: purchased Carna Biosciences
# Method in brief: as §1
# [11] = molecular target: T11, IKKβ (Homo sapiens, UniProt O14920)
# T11 construct: purchased Carna Biosciences
# Method in brief: as §1
# [12] = molecular target: T12, CK1γ1 (Homo sapiens, UniProt Q9HCP0)
# T12 construct: purchased Carna Biosciences
# Method in brief: as §1
# [13] = molecular target: T13, HIPK2 (Homo sapiens, UniProt Q9H2X6)
# T13 construct: purchased Carna Biosciences
# Method in brief: as §1
# [14] = molecular target: T14, BRAF_Cascade (Homo sapiens, UniProt P15056)
# T14 construct: purchased Carna Biosciences
# Method in brief: as §1
# [15] = molecular target: T15, p38α (Homo sapiens, UniProt Q16539)
# T15 construct: purchased Carna Biosciences
# Method in brief: as §1
# [16] = molecular target: T16, NEK9 (Homo sapiens, UniProt Q8TD19)
# T16 construct: purchased Carna Biosciences
# T16 sequence (Q8TD19 whole entry): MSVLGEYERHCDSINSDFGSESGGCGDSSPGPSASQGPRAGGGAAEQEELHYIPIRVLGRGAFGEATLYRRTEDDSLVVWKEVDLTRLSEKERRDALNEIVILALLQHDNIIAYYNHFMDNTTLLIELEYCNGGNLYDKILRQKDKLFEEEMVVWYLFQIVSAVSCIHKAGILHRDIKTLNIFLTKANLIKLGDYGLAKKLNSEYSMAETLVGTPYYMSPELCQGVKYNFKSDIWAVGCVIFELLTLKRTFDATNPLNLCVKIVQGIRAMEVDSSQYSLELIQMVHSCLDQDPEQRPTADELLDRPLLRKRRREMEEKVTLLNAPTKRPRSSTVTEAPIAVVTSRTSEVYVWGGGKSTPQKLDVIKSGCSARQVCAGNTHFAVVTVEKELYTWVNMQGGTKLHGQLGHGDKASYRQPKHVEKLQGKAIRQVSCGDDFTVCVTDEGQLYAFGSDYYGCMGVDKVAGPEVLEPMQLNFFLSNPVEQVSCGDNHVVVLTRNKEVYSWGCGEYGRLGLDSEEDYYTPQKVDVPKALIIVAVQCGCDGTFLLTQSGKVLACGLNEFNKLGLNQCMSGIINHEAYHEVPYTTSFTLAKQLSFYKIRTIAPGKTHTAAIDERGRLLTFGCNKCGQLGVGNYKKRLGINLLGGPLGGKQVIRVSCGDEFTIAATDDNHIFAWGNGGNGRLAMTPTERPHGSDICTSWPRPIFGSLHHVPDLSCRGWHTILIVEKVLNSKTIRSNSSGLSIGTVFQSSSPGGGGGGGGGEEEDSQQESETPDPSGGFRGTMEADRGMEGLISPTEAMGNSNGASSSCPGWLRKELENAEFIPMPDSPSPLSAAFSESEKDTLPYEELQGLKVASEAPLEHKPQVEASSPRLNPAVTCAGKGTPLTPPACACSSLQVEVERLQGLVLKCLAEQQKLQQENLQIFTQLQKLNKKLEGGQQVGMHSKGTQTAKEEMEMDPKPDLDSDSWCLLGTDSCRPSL
# Method in brief: as §1
# [17] = molecular target: T17, TNIK (Homo sapiens, UniProt Q9UKE5)
# T17 construct: purchased Carna Biosciences
# Method in brief: as §1
# [18] = molecular target: T18, EPHA5 (Homo sapiens, UniProt P54756)
# T18 construct: purchased Carna Biosciences
# Method in brief: as §1
# [19] = molecular target: T19, CDK6/CycD3 (Homo sapiens, UniProt Q00534)
# T19 construct: purchased Carna Biosciences
# T19 sequence (Q00534 whole entry): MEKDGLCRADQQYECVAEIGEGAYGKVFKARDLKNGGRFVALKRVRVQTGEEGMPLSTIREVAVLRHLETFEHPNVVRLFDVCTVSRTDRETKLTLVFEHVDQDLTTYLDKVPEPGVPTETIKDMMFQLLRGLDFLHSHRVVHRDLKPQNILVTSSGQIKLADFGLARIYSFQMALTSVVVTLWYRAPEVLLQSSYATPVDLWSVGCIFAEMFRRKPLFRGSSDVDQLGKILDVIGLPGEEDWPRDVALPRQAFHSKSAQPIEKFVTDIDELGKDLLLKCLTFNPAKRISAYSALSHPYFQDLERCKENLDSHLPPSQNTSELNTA
# T19 sequence (P30281 whole entry partner): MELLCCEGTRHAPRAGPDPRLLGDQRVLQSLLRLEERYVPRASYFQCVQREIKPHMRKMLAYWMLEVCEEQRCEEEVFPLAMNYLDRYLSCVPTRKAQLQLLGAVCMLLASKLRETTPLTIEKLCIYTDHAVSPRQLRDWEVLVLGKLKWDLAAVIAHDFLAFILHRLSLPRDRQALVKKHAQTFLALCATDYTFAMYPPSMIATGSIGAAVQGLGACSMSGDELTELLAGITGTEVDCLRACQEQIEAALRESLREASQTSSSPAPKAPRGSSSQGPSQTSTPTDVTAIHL
# Method in brief: as §1
# [20] = molecular target: T20, AKT3 (Homo sapiens, UniProt Q9Y243)
# T20 construct: purchased Carna Biosciences
# T20 sequence (Q9Y243 whole entry): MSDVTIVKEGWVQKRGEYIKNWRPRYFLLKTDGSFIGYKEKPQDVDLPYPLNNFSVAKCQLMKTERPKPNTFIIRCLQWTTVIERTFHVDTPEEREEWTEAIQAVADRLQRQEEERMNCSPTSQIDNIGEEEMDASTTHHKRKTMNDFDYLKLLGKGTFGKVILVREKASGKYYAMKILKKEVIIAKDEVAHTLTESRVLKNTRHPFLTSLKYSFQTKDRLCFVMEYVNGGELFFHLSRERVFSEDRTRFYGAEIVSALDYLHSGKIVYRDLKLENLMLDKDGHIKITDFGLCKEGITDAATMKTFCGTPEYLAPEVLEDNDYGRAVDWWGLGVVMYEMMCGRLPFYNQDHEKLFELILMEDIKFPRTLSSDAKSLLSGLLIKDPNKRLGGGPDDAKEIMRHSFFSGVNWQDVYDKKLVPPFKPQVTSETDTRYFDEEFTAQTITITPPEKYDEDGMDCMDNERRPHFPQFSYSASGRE
# Method in brief: as §1
# [21] = molecular target: T21, ZAP70 (Homo sapiens, UniProt P43403)
# T21 construct: purchased Carna Biosciences
# Method in brief: as §1
# [22] = molecular target: T22, SLK (Homo sapiens, UniProt Q9H2G2)
# T22 construct: purchased Carna Biosciences
# Method in brief: as §1
# [23] = molecular target: T23, WNK2 (Homo sapiens, UniProt Q9Y3S1)
# T23 construct: purchased Carna Biosciences
# Method in brief: as §1
# [24] = molecular target: T24, PAK4 (Homo sapiens, UniProt O96013)
# T24 construct: purchased Carna Biosciences
# Method in brief: as §1
# [25] = molecular target: T25, CLK3 (Homo sapiens, UniProt P49761)
# T25 construct: purchased Carna Biosciences
# Method in brief: as §1
# [26] = molecular target: T26, JAK3 (Homo sapiens, UniProt P52333)
# T26 construct: purchased Carna Biosciences
# Method in brief: as §1
# [27] = molecular target: T27, BRK (Homo sapiens, UniProt Q13882)
# T27 construct: purchased Carna Biosciences
# Method in brief: as §1
# [28] = molecular target: T28, ALK(L1196M) (Homo sapiens, UniProt Q9UM73, L1196M)
# T28 construct: purchased Carna Biosciences
# Method in brief: as §1
# [29] = molecular target: T29, SPHK2 (Homo sapiens, UniProt Q9NRA0)
# T29 construct: purchased Carna Biosciences
# Method in brief: as §1
# [30] = molecular target: T30, MST3 (Homo sapiens, UniProt Q9Y6E0)
# T30 construct: purchased Carna Biosciences
# Method in brief: as §1
# [31] = molecular target: T31, LYNa (Homo sapiens, UniProt P07948)
# T31 construct: purchased Carna Biosciences
# Method in brief: as §1
# [32] = molecular target: T32, DLK_Cascade (Homo sapiens, UniProt Q12852)
# T32 construct: purchased Carna Biosciences
# Method in brief: as §1
# [33] = molecular target: T33, MAP4K2 (Homo sapiens, UniProt Q12851)
# T33 construct: purchased Carna Biosciences
# Method in brief: as §1
# [34] = molecular target: T34, PKCη (Homo sapiens, UniProt P24723)
# T34 construct: purchased Carna Biosciences
# Method in brief: as §1
# [35] = molecular target: T35, SIK (Homo sapiens, UniProt P57059)
# T35 construct: purchased Carna Biosciences
# Method in brief: as §1
# [36] = molecular target: T36, EPHB2 (Homo sapiens, UniProt P29323)
# T36 construct: purchased Carna Biosciences
# Method in brief: as §1
smiles,measurement,setting,value
"[H]/N=C1/NC(=O)C(=Cc2ccc3c(c2)CCO3)S1 [CaNDY, (Z)-5-[(2,3-dihydrobenzofuran-5-yl)methylene]-2-iminothiazolidin-4-one]",remaining activity at 1 µM,[1],100%
same,remaining activity at 1 µM,[2],90.3%
same,remaining activity at 1 µM,[3],104%
same,remaining activity at 1 µM,[4],74.9%
same,%Activity,[5],100.9%
same,remaining activity at 1 µM,[6],102%
same,remaining activity at 1 µM,[7],92.8%
same,remaining activity at 1 µM,[8],99.2%
same,remaining activity at 1 µM,[9],102%
same,remaining activity at 1 µM,[10],97.6%
same,remaining activity at 1 µM,[11],104%
same,%Activity,[12],83.4%
same,remaining activity at 1 µM,[13],22.6%
same,remaining activity at 1 µM,[14],108%
same,%Activity,[15],95.9%
same,remaining activity at 1 µM,[16],91.6%
same,remaining activity at 1 µM,[17],60%
same,%Activity,[18],100.1%
same,remaining activity at 1 µM,[19],97.1%
same,remaining activity at 1 µM,[20],104%
same,remaining activity at 1 µM,[21],95.7%
same,remaining activity at 1 µM,[22],96.9%
same,remaining activity at 1 µM,[23],101%
same,remaining activity at 1 µM,[24],95%
same,%Activity,[25],16.5%
same,remaining activity at 1 µM,[26],94.2%
same,remaining activity at 1 µM,[27],95.4%
same,remaining activity at 1 µM,[28],97.8%
same,remaining activity at 1 µM,[29],92.3%
same,%Activity,[30],100.2%
same,remaining activity at 1 µM,[31],97.6%
same,%Activity,[32],102.6%
same,remaining activity at 1 µM,[33],76.7%
same,remaining activity at 1 µM,[34],92.8%
same,%Activity,[35],99.9%
same,%Activity,[36],99.8%
